Assay results as given in patent US20210017200A1, “Hydrocarbyl Tin Complex with Antitumor Activity and Preparation Method Thereof” (priority 2020, published 2021).

Columns and labels:
Assay type in all cases: cell-based
[1] = system: A549 (human lung cancer cells); settings: MTT, 72 hours
Experimental: (§1) MCF-7, HT-29, A549 and HepG2 cells are got from American Tissue Culture Collection, which are cultured with the culture medium containing 10% bovine fetal serum in a CO2-containing incubator at 37° C. The MTT method is used to detect cell proliferation and growth inhibition. The number of experimental cells is adjusted to obtain the absorbance at 570 nm, 6 concentrations are set for the compound test solution (0.1 nmol/L˜10 μmol/L). The cells are treated for 72 hours. At least 3 parallel experiments and 3 repeated experiments are conducted for each concentration. The IC50 value is determined by statistical analysis.
(§2) Taking cisplatin as the contrast, the in-vitro growth inhibitory activity of Compound 1 and Compound 2 on tumor cells are tested, including MCF7 (human breast cancer cells), HT-29 (human colon cancer cells), A549 (human lung cancer cells) and HepG2 (liver cancer cells).

[2] = system: HT-29 (human colon cancer cells); settings: HT-29 cells, MTT, 72 hours
Experimental: as §1, §2

[3] = system: HepG2 (liver cancer cells); settings: MTT, 72 hours
Experimental: as §1, §2

[4] = system: MCF7 (human breast cancer cells); settings: MTT, 72 hours
Experimental: as §1, §2

Tri-n-butyltin (IV) (4-methoxyphenyl) Acetylenyl Phosphonic Acid Derivatives [Compound 1]
IC50 [1]: 243 nM | IC50 [2]: 65 nM | IC50 [3]: 329 nM | IC50 [4]: 853 nM
